The supplement of paper PMC10307832

Columns and labels:
Test in all cases: relative viability (nuclei count vs DMSO), 5 days (fraction); higher = more cells survive
Gemcitabine = compound: Nc1ccn([C@@H]2O[C@H](CO)[C@@H](O)C2(F)F)c(=O)n1 [Gemcitabine]
In short: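 On vehicle-anchored 1536-well plates, lung cancer cell lines held overnight at 37 °C were pinned with five library-drug doses (not always all listed) spaced by √10. With no medium change over 5 days, they were then fixed, permeabilised and Hoechst-stained in one step and imaged at 4×. MetaXpress counted nuclei, and viability is the median across plates of treated-well over vehicle-well nuclei. Acceptance needed control CV below 25% and at least one doubling.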

[1] = compound: Nc1ccn([C@@H]2O[C@H](CO)[C@@H](O)C2(F)F)c(=O)n1 [Gemcitabine] + CC(=O)c1c(C)c2cnc(Nc3ccc(N4CCNCC4)cn3)nc2n(C2CCCC2)c1=O [Palbociclib] (partner 0.5 µM)
In short: (§1)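 Lung cancer cell lines were pin-tool dosed in 1536-well plates on the day after seeding, with either a lone drug or a fixed anchor-drug dose plus five library-drug doses (not always all listed) in √10 steps. Nuclei were counted on 4× images after 5 days. Relative viability is the ratio of treated-well to vehicle-well nuclei counts, with each value a median of duplicate plates.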

Gemcitabine + Foretinib = compound: Nc1ccn([C@@H]2O[C@H](CO)[C@@H](O)C2(F)F)c(=O)n1 [Gemcitabine] + COc1cc2c(Oc3ccc(NC(=O)C4(C(=O)Nc5ccc(F)cc5)CC4)cc3F)ccnc2cc1OCCCN1CCOCC1 [Foretinib] (partner 0.25 µM)
In short: as §1

Gemcitabine + OSI-027 = compound: Nc1ccn([C@@H]2O[C@H](CO)[C@@H](O)C2(F)F)c(=O)n1 [Gemcitabine] + COc1cccc2cc(-c3nc([C@H]4CC[C@H](C(=O)O)CC4)n4ncnc(N)c34)[nH]c12 [OSI-027] (partner 0.5 µM)
In short: as §1

Cell Line	relative viability (Gemcitabine; 0.001 µM)	relative viability (Gemcitabine; 0.003162 µM)	relative viability (Gemcitabine; 0.01 µM)	relative viability (Gemcitabine; 0.03162 µM)	relative viability (Gemcitabine; 0.1 µM)	relative viability ([1]; first compound 0.001 µM)	relative viability ([1]; first compound 0.003162 µM)	relative viability ([1]; first compound 0.01 µM)	relative viability ([1]; first compound 0.03162 µM)	relative viability ([1]; first compound 0.1 µM)	relative viability (Gemcitabine + Foretinib; first compound 0.001 µM)	relative viability (Gemcitabine + Foretinib; first compound 0.003162 µM)	relative viability (Gemcitabine + Foretinib; first compound 0.01 µM)	relative viability (Gemcitabine + Foretinib; first compound 0.03162 µM)	relative viability (Gemcitabine + Foretinib; first compound 0.1 µM)	relative viability (Gemcitabine + OSI-027; first compound 0.001 µM)	relative viability (Gemcitabine + OSI-027; first compound 0.003162 µM)	relative viability (Gemcitabine + OSI-027; first compound 0.01 µM)	relative viability (Gemcitabine + OSI-027; first compound 0.03162 µM)	relative viability (Gemcitabine + OSI-027; first compound 0.1 µM)
NCI-H1651	0.987	0.955	0.929	0.285	0.141	0.509	0.496	0.536	0.311	0.136	0.805	0.771	0.596	0.137	0.0964	0.607	0.75	0.557	0.248	0.117
NCI-H1666	0.965	1	0.909	0.61	0.412	0.603	0.664	0.651	0.596	0.578	0.9	0.991	0.889	0.619	0.428	0.87	0.821	0.752	0.5	0.479
NCI-H1734	0.984	0.856	0.263	0.121	0.125	0.318	0.293	0.174	0.149	0.131	0.781	0.653	0.287	0.131	0.126	0.506	0.343	0.166	0.121	0.111
NCI-H1755	0.97	1	0.943	0.633	0.305	0.431	0.425	0.401	0.414	0.421	1	0.909	0.879	0.564	0.29	0.789	0.715	0.57	0.34	0.272
NCI-H1793	1.02	1.04	0.565	0.168	0.146	0.297	0.3	0.267	0.167	0.145	0.71	0.652	0.437	0.141	0.136	0.236	0.286	0.205	0.159	0.116
NCI-H1915	0.981	1.03	0.98	0.865	0.475	0.522	0.532	0.508	0.425	0.22	1.1	1.1	1.04	0.908	0.468	0.714	0.63	0.545	0.479	0.241
NCI-H1944	1	0.995	0.821	0.496	0.235	0.357	0.286	0.268	0.229	0.171	0.891	0.992	0.847	0.345	0.199	0.453	0.437	0.385	0.188	0.149
NCI-H1975	0.984	1.1	0.648	0.216	0.174	0.638	0.502	0.48	0.148	0.122	1.03	0.962	0.555	0.156	0.138	0.867	0.839	0.327	0.148	0.125
NCI-H1993	0.974	0.958	0.604	0.441	0.558	0.656	0.575	0.524	0.443	0.379	0.561	0.833	0.61	0.63	0.588	0.539	0.534	0.541	0.503	0.518
NCI-H2009	1.01	0.746	0.24	0.167	0.114	0.216	0.203	0.193	0.132	0.0838	1.26	0.938	0.404	0.185	0.153	0.566	0.303	0.167	0.133	0.111
NCI-H2023	1.03	0.92	0.444	0.103	0.0642	0.354	0.39	0.218	0.138	0.0722	0.966	0.643	0.586	0.124	0.0582	0.417	0.342	0.128	0.0817	0.0589
NCI-H2085	1.05	0.954	0.852	0.792	0.439	0.441	0.433	0.316	0.314	0.3	0.897	0.889	0.598	0.431	0.241	0.896	0.75	0.479	0.414	0.189
NCI-H2087	1.04	0.852	0.349	0.132	0.118	0.266	0.197	0.193	0.165	0.136	1.14	0.708	0.245	0.164	0.111	0.532	0.229	0.112	0.0781	0.0817
NCI-H2126	0.971	1	0.906	0.77	0.458	0.323	0.367	0.312	0.29	0.281	1.15	1.17	1.15	0.674	0.324	0.733	0.596	0.609	0.447	0.279
NCI-H2170	0.99	0.999	0.86	0.498	0.158	0.408	0.394	0.266	0.184	0.13	1.02	1.03	0.909	0.3	0.518	0.714	0.662	0.632	0.292	0.136
NCI-H2228	0.973	0.695	0.235	0.161	0.132	0.734	0.229	0.142	0.135	0.106	0.913	0.536	0.198	0.183	0.0975	0.614	0.24	0.129	0.122	0.0908
